The numbers were not newly measured in US20140080794A1, “Methods and Compositions for the Treatment of Estrogen-Dependent Hyperproliferative Uterine Disorders” (Vivus, Inc., priority 2008, published 2014), which cites them from elsewhere.

The subject of the data set is endometriosis patients.

`CC(C)(C#N)c1cc(Cn2cncn2)cc(C(C)(C)C#N)c1` [anastrozole, α, α, α′, α′-tetramethyl-5-(1H-1,2,4-triazol-1-ylmethyl)-1,3-benzene-diacetonitrile]: the symptoms of endometriosis result (1 mg anastrozole and an oral contraceptive (20 μg ethinyl estradiol/1 mg levonorgestrel) per day for six months) is listed as “symptom improvement”. Besides, the systemic estradiol levels entry (1 mg anastrozole and an oral contraceptive (20 μg ethinyl estradiol/1 mg levonorgestrel) per day, all patients, by the end of the treatment period) is reported as “significantly suppressed”.
